The values below come from US20260217708A1, “FUSED BENZAZEPINE DERIVATIVES FOR USE IN THE TREATMENT OF CANCER AND EPILEPSY” (UCB BIOPHARMA SRL, priority 2023, published 2026).

Test [1] addresses T1, system Xc^− (Homo sapiens, UniProt Q9UPY5).
T1 sequence (Q9UPY5 1-501): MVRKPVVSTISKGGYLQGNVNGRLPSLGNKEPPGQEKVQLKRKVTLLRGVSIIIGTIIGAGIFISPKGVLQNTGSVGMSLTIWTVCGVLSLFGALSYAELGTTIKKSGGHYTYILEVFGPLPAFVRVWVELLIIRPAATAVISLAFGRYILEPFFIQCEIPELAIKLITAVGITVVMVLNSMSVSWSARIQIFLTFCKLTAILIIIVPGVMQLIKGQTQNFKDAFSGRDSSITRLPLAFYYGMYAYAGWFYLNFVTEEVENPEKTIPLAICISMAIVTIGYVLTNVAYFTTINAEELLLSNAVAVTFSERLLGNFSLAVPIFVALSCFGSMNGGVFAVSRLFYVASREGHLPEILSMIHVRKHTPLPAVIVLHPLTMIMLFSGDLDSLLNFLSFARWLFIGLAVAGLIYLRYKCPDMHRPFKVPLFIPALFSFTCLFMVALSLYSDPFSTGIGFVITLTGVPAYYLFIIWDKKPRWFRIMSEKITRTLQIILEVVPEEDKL
T1 sequence (P08195 1-529 partner): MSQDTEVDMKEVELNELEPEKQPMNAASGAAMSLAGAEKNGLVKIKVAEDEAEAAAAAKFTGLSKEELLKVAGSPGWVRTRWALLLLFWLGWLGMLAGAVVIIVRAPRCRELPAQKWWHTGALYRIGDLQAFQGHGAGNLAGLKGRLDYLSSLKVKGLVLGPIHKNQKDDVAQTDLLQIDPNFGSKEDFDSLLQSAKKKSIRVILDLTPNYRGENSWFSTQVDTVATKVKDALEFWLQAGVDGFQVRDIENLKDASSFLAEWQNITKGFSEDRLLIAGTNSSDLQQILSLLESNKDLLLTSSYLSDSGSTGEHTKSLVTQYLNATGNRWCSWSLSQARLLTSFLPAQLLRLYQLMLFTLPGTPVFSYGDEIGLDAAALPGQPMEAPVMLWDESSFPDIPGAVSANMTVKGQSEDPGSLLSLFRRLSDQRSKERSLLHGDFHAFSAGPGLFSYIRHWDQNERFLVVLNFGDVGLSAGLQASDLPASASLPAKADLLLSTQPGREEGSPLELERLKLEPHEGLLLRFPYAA
Nature of the test: Cystine-induced glutamate release assay. The format is cell-based. On the set-up: endogenous in cells; host or cells: H4 cells. As to conditions: H4 cells, sodium-free HEPES buffer, 50 μM L-Cystine, 2 hours, Amplex Red glutamate readout; read-out: pIC50 Cystine-induced glutamate release assay (converted). In a few lines:
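H4 cells in sodium-free HEPES buffer (pH 7.4), 2 days after plating; glutamate release induced with 50 μM L-cystine plus compound (1% DMSO), 2 h at 37 °C. Supernatant glutamate measured by Amplex Red fluorescence; IC50/pIC50 derived between 1% DMSO and 50 μM erastin controls.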

Test [2] concerns the target T1, system Xc^−. Kind of test: [^14C]L-Cystine uptake assay. On the set-up: endogenous in cells; host or cells: H4 cells. As to conditions: H4 cells, sodium-free HEPES buffer, 0.5 μM L-[14C]Cystine and 4.5 μM L-Cystine, 1 hour at 37° C.; read-out: pIC50 [^14C] L-Cystine uptake assay (converted). The format is cell-based. In a few lines:
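H4 cells at 5×10^4 cells/well in sodium-free HEPES buffer were preincubated 15 min with compounds (1% DMSO). Uptake of 0.5 μM [14C]L-cystine plus 4.5 μM unlabelled L-cystine ran 1 hour at 37° C on scintillating plates. IC50 was set between 1% DMSO and 50 μM Erastin controls and expressed as pIC50.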

On to `CC1C(=O)N(CC(=O)Nc2ccc(Cl)c(F)c2)c2ccnc(F)c2-c2cc(F)cnc21` (single isomer, unassigned) [#419, N-(4-chloro-3-fluoro-phenyl)-2-[3,14-difluoro-10-methyl-9-oxo-4,8,12-triazatricyclo[9.4.0.0^2,7]pentadeca-1(15),2,4,6,11,13-hexaen-8-yl]acetamide], for which the IC50 in test [1] was 15.8 to 39.8 nM; in test [2], less than 15.8 nM.
The corresponding values for `Cc1cc2c(c(=O)n1C)-c1sccc1C(C)C(=O)N2CC(=O)Nc1ccc(C(F)F)cc1` (centres unmarked) [#361, N-[4-(difluoromethyl)phenyl]-2-(7,12,13-trimethyl-8,14-dioxo-3-thia-9,13-diazatricyclo[8.4.0.0^2,6]tetradeca-1(10),2(6),4,11-tetraen-9-yl)acetamide] are 15.8 to 39.8 nM and less than 15.8 nM.
On the same counts, the results for `Cc1cc2c(c(F)n1)-c1cccnc1[C@@H](C)C(=O)N2CC(=O)Nc1ccc(C2CC2)c(F)c1` [#144, N-(4-cyclopropyl-3-fluoro-phenyl)-2-[(10R)-3-fluoro-5,10-dimethyl-9-oxo-4,8,12-triazatricyclo[9.4.0.0^2,7]pentadeca-1(11),2(7),3,5,12,14-hexaen-8-yl]acetamide] are 15.8 to 39.8 nM and less than 15.8 nM.
On to `Cc1cc2c(c(Cl)n1)-c1cc(C)nn1CC(=O)N2CC(=O)Nc1ccc(C(F)(F)F)cc1` [#105, 2-(14-chloro-4,12-dimethyl-8-oxo-5,6,9,13-tetrazatricyclo[8.4.0.0^2,6]tetradeca-1(14),2,4,10,12-pentaen-9-yl)-N-[4-(trifluoromethyl)phenyl]acetamide], for which the IC50 in test [1] and in test [2] was 39.8 to 100 nM in each case.
For `CC1C(=O)N(CC(=O)Nc2ccc(C(F)F)cc2)c2cc(N3CC(C)(F)C3)nc(F)c2-c2cccnc21` (single isomer, unassigned) [#288, N-[4-(difluoromethyl)phenyl]-2-[3-fluoro-5-(3-fluoro-3-methyl-azetidin-1-yl)-10-methyl-9-oxo-4,8,12-triazatricyclo[9.4.0.0^2,7]pentadeca-1(15),2,4,6,11,13-hexaen-8-yl]acetamide], the IC50 in test [1] and in test [2] was less than 15.8 nM in each case.
Take `Cc1cc2c(cn1)-c1ncccc1C(C)C(=O)N2CC(=O)Nc1ccc(Cl)c(F)c1` (single isomer, unassigned) [#407, N-(4-chloro-3-fluoro-phenyl)-2-[8,13-dimethyl-9-oxo-3,10,14-triazatricyclo[9.4.0.0^2,7]pentadeca-1(15),2,4,6,11,13-hexaen-10-yl]acetamide]: the IC50 in test [1] and in test [2] was 39.8 to 100 nM throughout.
Turning to `Cc1cc2c(nc1C)-c1ccccc1CC(=O)N2CC(=O)Nc1ccc(C(F)(F)F)cc1` [#15, 2-(2,3-dimethyl-6-oxo-7H-pyrido[3,2-d][3]benzazepin-5-yl)-N-[4-(trifluoro-methyl)phenyl] acetamide], the IC50 is 100 to 501 nM in test [1] and 15.8 to 39.8 nM in test [2].
On the same counts, the results for `CC1C(=O)N(CC(=O)Nc2ccc(C(F)(F)F)nc2)c2cc(Cl)cc(F)c2-c2cccnc21` (single isomer, unassigned) [#331, 2-[9-chloro-11-fluoro-5-methyl-6-oxo-5H-pyrido[2,3-d][1]benzazepin-7-yl]-N-[6-(trifluoromethyl)-3-pyridyl]acetamide] are 39.8 to 100 nM and 15.8 to 39.8 nM.
On to `CC1C(=O)N(CC(=O)Nc2ccc(Cl)c(F)c2)c2cc(C#N)c(F)cc2-c2cccnc21` (single isomer, unassigned) [#394, N-(4-chloro-3-fluoro-phenyl)-2-[9-cyano-10-fluoro-5-methyl-6-oxo-5H-pyrido[2,3-d][1]benzazepin-7-yl]acetamide], for which the IC50 is 15.8 to 39.8 nM in test [1] and 39.8 to 100 nM in test [2].
`Cc1cc2c(c(C(F)F)n1)-c1ccccc1CC(=O)N2CC(=O)Nc1ccc(C(F)(F)F)cc1` [#56, 2-[1-(difluoromethyl)-3-methyl-6-oxo-7H-pyrido[4,3-d][3]benzazepin-5-yl]-N-[4-(trifluoromethyl)phenyl]acetamide]: the IC50 in test [1] and in test [2] was 39.8 to 100 nM in each case.
For `COC1C(=O)N(CC(=O)Nc2ccc(C(F)(F)F)cc2)c2cc(C)nc(Cl)c2-c2ccccc21` (centres unmarked) [#107, 2-(1-chloro-7-methoxy-3-methyl-6-oxo-7H-pyrido[3,4-a][3]benzazepin-5-yl)-N-[4-(trifluoromethyl)phenyl]acetamide], the IC50 is 15.8 to 39.8 nM in test [1] and less than 15.8 nM in test [2].
The corresponding values for `COc1ccc(NC(=O)CN2C(=O)C(C)c3ncccc3-c3c2cc(C)nc3F)cc1F` (centres unmarked) [#131, 2-(3-fluoro-5,10-dimethyl-9-oxo-4,8,12-triazatricyclo[9.4.0.0^2.7]pentadeca-1(11),2(7),3,5,12,14-hexaen-8-yl)-N-(3-fluoro-4-methoxy-phenyl)acetamide] are 39.8 to 100 nM and 15.8 to 39.8 nM.
The corresponding values for `Cc1ncc2c(n1)C(C)C(=O)N(CC(=O)Nc1ccc(Cl)c(F)c1)c1cc(Cl)cc(F)c1-2` (single isomer, unassigned) [#373, 2-[9-chloro-11-fluoro-3,5-dimethyl-6-oxo-5H-pyrimido[4,5-d][1]benzazepin-7-yl]-N-(4-chloro-3-fluoro-phenyl)acetamide] are 15.8 to 39.8 nM and 15.8 to 39.8 nM.
The corresponding values for `CC1C(=O)N(CC(=O)Nc2ccc(C(F)F)cc2)c2cc(N3CC[C@@H]3CO)nc(F)c2-c2cccnc21` (stereo partly drawn) [#273, N-[4-(difluoromethyl)phenyl]-2-[3-fluoro-5-[(2R)-2-(hydroxymethyl)azetidin-1-yl]-10-methyl-9-oxo-4,8,12-triazatricyclo[9.4.0.0^2,7]pentadeca-1(15),2,4,6,11,13-hexaen-8-yl]acetamide] are less than 15.8 nM and less than 15.8 nM.
In the case of `CCn1c(C)cc2c(c1=O)-c1cccnc1[C@@H](C)C(=O)N2CC(=O)Nc1ccc(Cl)c(F)c1` (single isomer, unassigned) [#176, Enantiomer (10R) or (10S) of N-(4-chloro-3-fluoro-phenyl)-2-[4-ethyl-5,10-dimethyl-3,9-dioxo-4,8,12-triazatricyclo[9.4.0.0^2,7]pentadeca-1(15),2(7),5,11,13-pentaen-8-yl]acetamide], the IC50 in test [1] and in test [2] was less than 15.8 nM throughout.
With `COc1nc2c(cc1CO)N(CC(=O)Nc1ccc(Cl)c(F)c1)C(=O)C(C)c1ccccc1-2` (centres unmarked) [#399, N-(4-chloro-3-fluoro-phenyl)-2-[3-(hydroxymethyl)-2-methoxy-7-methyl-6-oxo-7H-pyrido[3,2-d][3]benzazepin-5-yl]acetamide], the IC50 was 39.8 to 100 nM in test [1] and 15.8 to 39.8 nM in test [2].
The corresponding values for `COc1nc(C)cc2c1-c1cncnc1C(C)C(=O)N2CC(=O)Nc1ccc(C(F)(F)F)cc1` (centres unmarked) [#157, 2-(15-methoxy-8,13-dimethyl-9-oxo-4,6,10,14-tetrazatricyclo[9.4.0.0^2,7]pentadeca-1(11),2(7),3,5,12,14-hexaen-10-yl)-N-[4-(trifluoromethyl)phenyl]acetamide] are 15.8 to 39.8 nM and less than 15.8 nM.
The corresponding values for `Cc1cc2c(c(F)n1)-c1cccnc1[C@@H](C)C(=O)N2CC(=O)Nc1ccc(C(F)(F)F)c(F)c1` [#143, 2-[(10R)-3-fluoro-5,10-dimethyl-9-oxo-4,8,12-triazatricyclo[9.4.0.0^2,7]pentadeca-1(11),2(7),3,5,12,14-hexaen-8-yl]-N-[3-fluoro-4-(trifluoromethyl)phenyl]acetamide] are 15.8 to 39.8 nM and less than 15.8 nM.
For the compound `CC1C(=O)N(CC(=O)Nc2ccc(Cl)c(F)c2)c2cc(N3CC(F)(F)C3)ncc2-c2cccnc21` (single isomer, unassigned) [#293, N-(4-chloro-3-fluoro-phenyl)-2-[5-(3,3-difluoroazetidin-1-yl)-10-methyl-9-oxo-4,8,12-triazatricyclo[9.4.0.0^2,7]pentadeca-1(15),2,4,6,11,13-hexaen-8-yl]acetamide], the figures for the IC50 in test [1] and in test [2] were 39.8 to 100 nM and 15.8 to 39.8 nM, respectively.
